Drawing on patent EP4104902B1, “COMPOUNDS AND M[…] SAME” (priority 2020, dated 2021), this text covers IC50, prophylactic effect and Anti-cancer cell activity for 18 compounds.

Read-outs that look alike come from different tables or passages of the source.

In assay [1] the test system is recombinant rabies virus 1088 strain expressing Gaussia Luciferase (GLuc) (1088/GLuc). The format is cell-based.
In a further assay the test system is rabies virus. To be noted: mouse, in vivo; cited from earlier work.
Assay [2] has as its system mouse neuroblastoma cell strain Neuro-2A. Description: Anti-cancer cell activity evaluation (minimum inhibitory concentration with respect to cells). The format is cell-based. The conditions noted are these: MIC, 3 days.
Setting [3] is: compounds of formula XXIIB and formula XXIIF.

`NC(=O)c1nc(F)c[nH]c1=O` [Compound T-705, Favipiravir]: the IC50 in assay [1] (read-out: IC50) was 30 µM. In the assay on rabies virus, the prophylactic effect result is “significant prophylactic effect was confirmed and not”.

Take `CC(C)CN1CC2CC3(C(=O)NCc4ccccc4)NCC2C1C3CCCCc1ccccc1` (stereo not drawn) [IF-899]: the IC50 in assay [1] (read-out: Anti-rabies activity) fell in the range of 5 to 10 µM. Besides, the Anti-cancer cell activity result in assay [2] (compounds of formula XXIF) is “c (c if greater than 20 µM and less than or equal to 40 µM)”.

For `CC(C)CCN1CC2CC3(C(=O)NCc4cccc(F)c4)NCC2C1C3CCCc1ccccc1` (stereo not drawn) [IF-900], the IC50 in assay [1] (read-out: Anti-rabies activity) was under 5 µM. Moreover, the Anti-cancer cell activity entry in assay [2] (compounds of formula XXIF) was “c (c if greater than 20 µM and less than or equal to 40 µM)”.

For `CC(C)CN1CC2CC3C=NC2(C(=O)NCc2ccc(Cl)cc2)C1C3CCc1ccccc1` (stereo not drawn) [IIB-331], in assay [1] (read-out: Anti-rabies activity), the IC50 was under 5 µM. Moreover, the Anti-cancer cell activity result in assay [2] (setting [3]) is “c (c if greater than 20 µM and less than or equal to 40 µM)”.

Consider `CC(C)CN1CC2CC3C=NC2(C(=O)NCc2cccc(Cl)c2)C1C3CCc1ccccc1` (stereo not drawn) [IIB-332], for which the IC50 in assay [1] (read-out: Anti-rabies activity) was under 5 µM. Moreover, the Anti-cancer cell activity entry in assay [2] (setting [3]) was “b (b if greater than 10 µM and less than or equal to 20 µM)”.

Regarding `Cc1ccc(CNC(=O)C23N=CC4CC2CN(CC(C)C)C3C4CCc2ccccc2)cc1` (stereo not drawn) [IIB-334], the IC50 in assay [1] (read-out: Anti-rabies activity) was under 5 µM. The Anti-cancer cell activity result in assay [2] (setting [3]) was “c (c if greater than 20 µM and less than or equal to 40 µM)”.

As to `CC(C)CN1CC2CC3C=NC2(C(=O)NCc2ccc4ccccc4c2)C1C3CCc1ccccc1` (stereo not drawn) [IIB-335], the IC50 in assay [1] (read-out: Anti-rabies activity) was under 5 µM. The Anti-cancer cell activity entry in assay [2] (setting [3]) was “c (c if greater than 20 µM and less than or equal to 40 µM)”.

With `CC(C)CN1CC2CC3C=NC2(C(=O)NCc2ccccc2)C1C3CCCc1ccccc1` (stereo not drawn) [IIB-336], the IC50 in assay [1] (read-out: Anti-rabies activity) is under 5 µM. In assay [2] (setting [3]), the Anti-cancer cell activity result is “c (c if greater than 20 µM and less than or equal to 40 µM)”.

In the case of `CC(C)CN1CC2CC3C=NC2(C(=O)NCc2cccc(Cl)c2)C1C3CCCc1ccccc1` (stereo not drawn) [IIB-337], the IC50 in assay [1] (read-out: Anti-rabies activity) is under 5 µM. In addition, in assay [2] (setting [3]), the Anti-cancer cell activity entry was “c (c if greater than 20 µM and less than or equal to 40 µM)”.

On to `CC(C)CN1CC2CC3C=NC2(C(=O)NCc2cccc(F)c2)C1C3CCCc1ccccc1` (stereo not drawn) [IIB-338], for which the IC50 in assay [1] (read-out: Anti-rabies activity) is under 5 µM. In assay [2] (setting [3]), the Anti-cancer cell activity result was “c (c if greater than 20 µM and less than or equal to 40 µM)”.

Turning to `Cc1cccc(CNC(=O)C23N=CC4CC2CN(CC(C)C)C3C4CCCc2ccccc2)c1` (stereo not drawn) [IIB-340], the IC50 in assay [1] (read-out: Anti-rabies activity) is under 5 µM. In assay [2] (setting [3]), the Anti-cancer cell activity result was “c (c if greater than 20 µM and less than or equal to 40 µM)”.

As for `COc1cccc(CNC(=O)C23N=CC4CC2CN(CC(C)C)C3C4CCCc2ccccc2)c1` (stereo not drawn) [IIB-341], in assay [1] (read-out: Anti-rabies activity), the IC50 was under 5 µM. In addition, the Anti-cancer cell activity entry in assay [2] (setting [3]) is “c (c if greater than 20 µM and less than or equal to 40 µM)”.

With `CC(C)CN1CC2CC3C=NC2(C(=O)NCc2cccc(Cl)c2)C1C3CCCCc1ccccc1` (stereo not drawn) [IIB-342], the IC50 in assay [1] (read-out: Anti-rabies activity) is 5 to 10 µM. Further, the Anti-cancer cell activity result in assay [2] (setting [3]) is “b (b if greater than 10 µM and less than or equal to 20 µM)”.

Turning to `CC(C)CN1CC2CC3C=NC2(C(=O)NCc2cccc(F)c2)C1C3CCCCc1ccccc1` (stereo not drawn) [IIB-343], in assay [1] (read-out: Anti-rabies activity), the IC50 is under 5 µM. In addition, the Anti-cancer cell activity entry in assay [2] (setting [3]) is “c (c if greater than 20 µM and less than or equal to 40 µM)”.

Regarding `Cc1cccc(CNC(=O)C23N=CC4CC2CN(CC(C)C)C3C4CCCCc2ccccc2)c1` (stereo not drawn) [IIB-344], in assay [1] (read-out: Anti-rabies activity), the IC50 is under 5 µM. For the same compound, in assay [2] (setting [3]), the Anti-cancer cell activity result is “b (b if greater than 10 µM and less than or equal to 20 µM)”.

In the case of `COc1cccc(CNC(=O)C23N=CC4CC2CN(CC(C)C)C3C4CCCCc2ccccc2)c1` (stereo not drawn) [IIB-345], in assay [1] (read-out: Anti-rabies activity), the IC50 is under 5 µM. Also, the Anti-cancer cell activity result in assay [2] (setting [3]) was “c (c if greater than 20 µM and less than or equal to 40 µM)”.

Regarding `CC(C)CN1CC2CC3C=NC2(C(=O)NCc2ccccc2)C1C3CCCCc1ccccc1` (stereo not drawn) [IIB-346], the IC50 in assay [1] (read-out: Anti-rabies activity) was under 5 µM. For the same compound, the Anti-cancer cell activity entry in assay [2] (setting [3]) is “b (b if greater than 10 µM and less than or equal to 20 µM)”.

In the case of `CC(C)CCN1CC2CC3C=NC2(C(=O)NCc2cccc(F)c2)C1C3CCCc1ccccc1` (stereo not drawn) [IIB-347], in assay [1] (read-out: Anti-rabies activity), the IC50 is under 5 µM. Also, in assay [2] (setting [3]), the Anti-cancer cell activity entry was “c (c if greater than 20 µM and less than or equal to 40 µM)”.
